Reference: US20260240974A1, “A T[…] VACCINE BASED ON VALIDATED TARGET EPITOPES” (Deutsches Krebsforschungszentrum Stiftung des öffentlichen …, priority 2023, published 2026)
Like-named read-outs stand apart in the source and are kept apart here.

What was measured:
[1] = system: short-term antigen-specific T cell lines generated from PBMCs; set-up: key: +: ELISPOT: Immungenicity of the peptide shown by IFN-gamma ELISPOT analysis; conditions: immunogenicity by IFN-gamma ELISPOT, * data from published resources, cited from earlier work
[2] = system: HPV16-positive cells; experiment: HLA immunoprecipitation and LC-MS of peptides presented by HPV16-positive cells; assay type: cell-based, human; set-up: key: +: presentation: HLA-presentation of the peptide by HPV16-positive cells shown by MS; conditions: HLA-presentation by HPV16-positive cells shown by MS
Protocol: HLA immunoprecipitation (IP) was performed according to previously published protocols (Bassani-Sternberg et al., 2016; Chong et al., 2018). Briefly, HPV16+ cells were lysed with a lysis buffer containing 1% N-octyl-β-D glucopyranoside, 0.25% Na-Deoxycholate, protease inhibitor cocktail (Sigma-Aldrich, Mannheim, Germany)/PMSF (Carl Roth, Karlsruhe, Germany) in PBS. After centrifugation at 40,000×g, 4° C., for 30 min. HLA-peptide complexes were immuno-precipitated by incubation with mouse anti-human HLA-A,B,C monoclonal antibody (clone W6/32, Biolegend, San Diego, CA, USA) or in some cases HLA-type-specific antibody (HLA-A2: clone BB7.2, HLA-A3: clone GAP A3, HLA-A11/A24: clone Hb 164, HLA-B7: clone BB7.1) crosslinked to protein G Sepharose beads (Cytiva, Marlborough, MA, USA) or Protein A—Sepharose™ 4B (Invitrogen Corporation, Camarillo, CA, USA) for 4 h at 4° C. under constant mixing on a rotating wheel. Supernatant was discarded after centrifugation at 3200×g, for 3 min at RT. Pelleted HLA-peptide complexes bound to antibody-beads were washed 3 times in each of the following steps: first with ice-cold 20 mM Tris-HCl pH 8 containing 150 mM NaCl followed by the same buffer but with additional […] and finally with 20 mM Tris-HCl alone. Peptides were eluted from antibody-beads bound to HLA by 0.3% TFA. Resulting peptides were desalted by reverse-phase purification using a SepPak 96-well plate (Waters, Milford, MA, USA). Peptides eluted in 28% ACN in 0.1% TFA were dried by vacuum centrifugation (Concentrator plus, Eppendorf, Hamburg, Germany).
The set of predicted target peptides were acquired as stable isotope labelled (SIL) peptides from commercial suppliers (crude synthesis product; isotope purity >99 atom % ^13C and ^15N). First, analysis by direct infusion was performed in order to optimize normalized collision energy (NCE) for each single peptide in a mixture. NCE values were ranging from 4% to 42% and each value, in 2% steps, was measured 4 times for four charge states (1+ to 4+) of each peptide. Orbitrap Exploris 480 (Thermo Fisher Scientific) in targeted MS2 scan (PRM) was operated using 30K resolution at 200 m/z, standard automated gain control (AGC) target, 350 ms maximum injection time (IT), 1 micro scan in centroid data acquisition mode. For all measurements, isolation window was 0.4, 0.7, 1 or 1.5 m/z, depending on the mass of the precursor, as recommended by the manufacturer. Ion chromatograms of all expected transitions were extracted with 12 ppm mass tolerance from the centroided spectra and deconvoluted using purpose-made R scripts. The best NCE value was selected so that the intensity of any 5th most intense transitions is maximized, thereby maximizing the chance of detecting at least 5 transitions. The retention time (RT) for each peptide was determined by LC-MS in DDA mode with an inclusion list of target peptides in all four charge-states. The MS resolution was set to 120K, 3e6 AGC target, 50 ms maximum IT and the LC operated as described below.
For LC-MS, samples were dissolved in 2.5 to 5 μl of 5% ACN in 0.1% TFA with 50 fmol of Peptide Retention Time Calibration (PRTC) Mixture (88321, Pierce™) spiked in, followed by 3 min bath sonication. All samples were analysed by liquid chromatography (U-3000, Thermo Fisher Scientific) coupled to Orbitrap Exploris 480 (Thermo Fisher Scientific). […]

[3] = system: short-term antigen-specific T cell lines generated from PBMCs; experiment: Interferon-γ ELISpot assay on short-term peptide-specific T cell lines from PBMCs; assay type: cell-based, human; set-up: key: +: ELISPOT: Immungenicity of the peptide shown by IFN-gamma ELISPOT analysis; conditions: immunogenicity by IFN-gamma ELISPOT
[4] = system: HPV16-positive cells; set-up: key: +: presentation: HLA-presentation of the peptide by HPV16-positive cells shown by MS; conditions: HLA-presentation by HPV16-positive cells shown by MS; * data from published resources; cited from earlier work

Substance	ELISpot [1]	presentation [2]	ELISpot [3]	presentation [4]	ELISpot ([1]; B07)	ELISpot ([3]; B15)
1 (ISEYRHYCY; Human papillomavirus 16) [compound 1]	+*	+	–	–	–	–
5 (RPRKLPQL; Human papillomavirus 16) [compound 5]	–	+	+	–	–	–
3 (TTLEQQYNK; Human papillomavirus 16) [compound 3]	–	+	+	–	–	–
2 (YMLDLQPET; Human papillomavirus 16) [compound 2]	+*	–	–	+*	–	–
6 (LQPETTDLY; Human papillomavirus 16) [compound 6]	+*	+	–	–	–	–
4 (RAHYNIVTF; Human papillomavirus 16) [compound 4]	–	+	–	–	+*(B07)	+(B15)
